Assay results published in patent US7981930B2, “Compositions and kits for treating influenza” (Adamas Pharmaceuticals, Inc., priority 2007, dated 2011).

Tested on: wild type A/Albany (H3N2) strain
Assay: Hollow fiber system, MDCK cells, continuous infusion 168 hours, viral titer and sequencing
Format: cell-based, Influenza A virus (H3N2)
Conditions: monotherapy arms vs. triple high dose arm

Q: `CCOC(=O)C1=C[C@@H](OC(CC)CC)[C@H](NC(C)=O)[C@@H](N)C1` [Oseltamivir] was tested. Which “formation of drug resistance (M2, NA sequencing)” value did it give?
A: appreciable formation of M2 and NA drug resistance
